Usually ED50 stands for the dose that gives a 50% effect, or the effect in half of the subjects. By LD50 is commonly meant the dose at which mortality reaches 50%.

Consider eleven compounds from patent US4673747A, “Aminoalkylphenoxy derivatives” (Ikeda Mohando Co., Ltd., priority 1984, dated 1987).

The structures appear in SMILES notation. Where two headings read alike, the source gives them in different places.

The subject of data set [1] is Gastric acid secretion induced by histamine. In words: Inhibition effect on gastric acid secretion induced by histamine in pylorus ligated rat (subcutaneous). It counts as in vivo, rat (male Wistar). The following applies: read-out: Secretion of Gastric Acid in Rat, Inhibition Rate (%); for inhibition in vivo at 0.2 mg/kg: 0.2 mg/kg SC. Here is the method:
A male Wistar rat having a body weight of about 160 g and which had not fed for 24 hours was anesthetized by an intraperitonea dose of 1.2 g/kg of uretane. After ligating of pylorus and esophagus, the gaster anterior was incised and fitted with a double polyethylene cannula. The wall of the stomach was rinsed with 5 ml of saline at 30 minute intervals, and the quantities of gastric acid contained in each rinsing solution were measured by titration.
The basal acid secretion was initially measured three times, and then 0.2 mg/kg or 0.5 mg/kg of each of the compounds of this invention was administered subcutaneously and 3 mg/kg of histamine was administered subcutaneously after the lapse of an additional 30 minutes.
The quantity of gastric acid secreated after the operation was measured continuously for 3 hours. Within that measurement interval, three time points at which the increase in acid secretion reached a maximum level were selected, and the average quantity of gastric acid secreted at those time points was taken as the increase in acid secretion, which was compared with the increase in acid secretion of the control group to calculate the percent inhibition for secretion of gastric acid. [formula] (The result was shown as the average value of five runs.)

For data set [2] the test system is unchanged. In words: Inhibitory effect of intraduodenally administered compounds on gastric acid secretion induced by histamine in rat. It counts as in vivo, rat (male Wistar). The following applies: for ED50: 0.5 h, read-out: Median effective dose (ED50), Gastric Acid Secretion; for Efficacy Ratio relative to Cimetidine (Cimetidine = 1): from ED50; for ED50 value: times as effective as Cimetidine (activity ratio): text discussing Table 2.

The nature of data set [3]: Acute toxicity test on mice dosed orally. Set-up: species or system mouse (male ddy). The following applies: mouse, in vivo, po, P.O., 14 days observation, read-out: Median lethal dose (LD50). The protocol:
Male ddy mice each having a body weight of about 22 g and which had not eaten for 8 hours were orally dosed with the test samples, and the general symptoms and fatalities were observed from the time immediately following the administration to 14 days after the administration.
The median lethal dose (LD50) was calculated in accordance with the Litchfield and Wilcoxon Method.

The target of another data set is T1, Histamine H2-Receptor (Cavia porcellus, UniProt P47747).
T1 construct: from tissue; host or cells: isolated atrium of male Hartley guinea pig
Set-up: species or system guinea pig (male Hartley). The following applies: isolated guinea pig atrium; negative logarithm of molar concentration; heart beats, histamine dose-response; read-out: Antagonistic Action against Histamine H2-Receptor (pA2) Determined by Using Atrium isolated from Guinea Pig (converted). The protocol: A male Hartley guinea pig having a body weight of about 400 g was killed by cervical dislocation, and the artrium thereof was isolated and was suspended in an organ bath containing 50 ml of a modified Ringer solution and subjected to a tension of 1 g. The number of heart beats under such condition was recorded using a polygraph.
Initially, from 1×10^-7 mol to 3×10^-4 mol of histamine was allowed to act accumulatively to depict the curve of the dosage-reaction relationship. Likewise, the curve of the dosage of histamine-reaction relationship was depicted in the presence of 5×10^-7 mol to 1×10^-6 mol of the test sample which was injected 3 minutes before. The negative logarithm (pA2) of the molar concentration of the test sample required for moving the curve obtained by single administration of histamine parallel to the right side by a two-times concentration was calculated.

Setting [4] is: 0.5 mg/kg SC, histamine 3 mg/kg SC, average of five runs, * p<0.05, ** p<0.01 vs control group.
The mark [5] stands for this setting: intraduodenal, 30 minutes before SC histamine, rat.
The mark [6] stands for this setting: histamine 3 mg/kg SC, average of five runs, * p<0.05, ** p<0.01 vs control group.

T1 sequence (P47747 whole entry): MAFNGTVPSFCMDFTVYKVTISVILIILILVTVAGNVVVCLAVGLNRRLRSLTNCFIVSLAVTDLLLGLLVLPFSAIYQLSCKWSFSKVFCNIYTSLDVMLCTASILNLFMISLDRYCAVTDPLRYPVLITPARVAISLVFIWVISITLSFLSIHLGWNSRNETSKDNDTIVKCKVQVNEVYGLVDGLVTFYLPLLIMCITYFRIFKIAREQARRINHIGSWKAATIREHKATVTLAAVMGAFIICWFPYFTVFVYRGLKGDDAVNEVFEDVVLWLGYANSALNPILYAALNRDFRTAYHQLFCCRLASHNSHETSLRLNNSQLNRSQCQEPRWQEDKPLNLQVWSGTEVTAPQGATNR

For `CN/C(=N/CCSCc1nc[nH]c1C)NC#N` [Cimetidine, reference compound], the inhibition in vivo at 0.5 mg/kg in data set [1] (sc) came to 41%. For the same compound, the ED50 in data set [2] (Rattus norvegicus) is 7.2 mg/kg. Further, the LD50 at 336 h in data set [3] came out at 3300 mg/kg.
Regarding `Nc1c(NC/C=C\COc2cccc(CN3CCCCC3)c2)c(=O)c1=O` [Ex. 2, 1-amino-2-[4-<3-(1-piperidinomethyl)phenoxy>-cis-2-butenylamino]-1-cyclobuten-3,4-dione], in data set [1] (setting [4]), the inhibition in vivo at 0.5 mg/kg was 98%. For the same compound, in data set [2] (setting [5]), the ED50 came out at 0.046 mg/kg. Moreover, in data set [2] (intraduodenal, rat), the “Efficacy Ratio relative to Cimetidine (Cimetidine = 1)” value (from here on “Efficacy Ratio relative to Cimetidine”) turned out to be 156.5 and the “ED50 value: times as effective as Cimetidine (activity ratio)” value (“ED50 value: times … (activity ratio)” below) was “about 157 times”. Besides, the Kb on Histamine H2-Receptor was 63.1 nM. Further, the LD50 at 336 h in data set [3] was more than 1500 mg/kg.
On to `CNc1c(NC/C=C\COc2cccc(CN3CCCCC3)c2)c(=O)c1=O` [Ex. 3, 1-methylamino-2-[4-<3-(1-piperidinomethyl)phenoxy>-cis-2-butenylamino]-cyclobuten-3,4-dione], for which the inhibition in vivo at 0.5 mg/kg in data set [1] (setting [4]) is 79%. Besides, the ED50 in data set [2] (setting [5]) amounted to 0.036 mg/kg. In data set [2] (intraduodenal, rat), the “Efficacy Ratio relative to Cimetidine” value stood at 200.0 and the “ED50 value: times … (activity ratio)” value is approximately 200 times. For the same compound, on Histamine H2-Receptor, the Kb was 309 nM. In addition, the LD50 at 336 h in data set [3] is more than 1500 mg/kg.
Consider `Nc1n[nH]c(=O)nc1NC/C=C\COc1cccc(CN2CCCCC2)c1` [Ex. 9, 6-amino-5-[4-<3-(1-piperidinomethyl)phenoxy>-cis-2-butenylamino]-1,2,4-triazin-3-one], for which the inhibition in vivo at 0.5 mg/kg in data set [1] (setting [4]) stood at 96%. Also, the Kb on Histamine H2-Receptor is 186 nM. The LD50 at 336 h in data set [3] came out at 1200 mg/kg.
Turning to `CNc1n[nH]c(=O)nc1NC/C=C\COc1cccc(CN2CCCCC2)c1` [Ex. 10, 6-methylamino-5-[4-<3-(1-piperidinomethyl)phenoxy>-cis-2-butenylamino]-1,2,4-triazin-3-one], the inhibition in vivo at 0.5 mg/kg in data set [1] (setting [4]) was found to be 103%. In addition, in data set [2] (setting [5]), the ED50 is 8 mg/kg. Moreover, in data set [2] (intraduodenal, rat), the “Efficacy Ratio relative to Cimetidine” value is on record as 0.9. Further, at Histamine H2-Receptor, the Kb is 219 nM. Further, the LD50 at 336 h in data set [3] was more than 1500 mg/kg.
For `Nc1cc(NC/C=C\COc2cccc(CN3CCCCC3)c2)nc(=O)[nH]1` [Ex. 13, 4-amino-6-[4-<3-(1-piperidinomethyl)phenoxy>-cis-2-butenylamino]-(1H)-pyrimidin-2-one], in that order: 91%, 0.52 mg/kg, 13.8, 83.2 nM and more than 1500 mg/kg.
In the case of `CNc1n[s+]([O-])nc1NC/C=C\COc1cccc(CN2CCCCC2)c1` (stereo not drawn) [Ex. 16, 3-methylamino-4-[4-<3-(1-piperidinomethyl)phenoxy>-cis-2-butenylamino]-1,2,5-thiadiazole-1-oxide], the inhibition in vivo at 0.5 mg/kg in data set [1] (setting [4]) was 98%. In addition, the ED50 in data set [2] (setting [5]) was 0.04 mg/kg. Also, in data set [2] (intraduodenal, rat), the “Efficacy Ratio relative to Cimetidine” value is given as 180.0 and the “ED50 value: times … (activity ratio)” value is listed as approximately 180 times. Also, the Kb on Histamine H2-Receptor is 2400 nM. In addition, in data set [3], the LD50 at 336 h was more than 1500 mg/kg.
For `CC1CCCN(Cc2cccc(OC/C=C\CNc3c(N)c(=O)c3=O)c2)C1` (stereo not drawn) [Ex. 34, 1-amino-2-[4-{3-<1-(3-methylpiperidino)methyl>phenoxy}-cis-2-butenylamino]-1-cyclobutene-3,4-dione], in data set [1] (setting [6]), the inhibition in vivo at 0.2 mg/kg was 100%. For the same compound, the ED50 in data set [2] (setting [5]) turned out to be 0.17 mg/kg. Besides, in data set [2] (intraduodenal, rat), the “Efficacy Ratio relative to Cimetidine” value is 42.1. At Histamine H2-Receptor, the Kb is 70.8 nM.
Taken in the same sequence, the figures for `CC1CCN(Cc2cccc(OC/C=C\CNc3c(N)c(=O)c3=O)c2)CC1` [Ex. 35, 1-amino-2-[4-{3-<1-(4-methylpiperidino)methyl>phenoxy}-cis-2-butenylamino]-1-cyclobutene-3,4-dione] were 98%, 0.38 mg/kg, 18.9 and 263 nM.
Take `O=c1c(NC/C=C\COc2cccc(CN3CCCCC3)c2)c(NCc2cccnc2)c1=O` [Ex. 37, 1-(3-pyridylmethylamino)-2-[4-<3-(1-piperidinomethyl)phenoxy>-cis-2-butenylamino]-1-cyclobutene-3,4-dione]: in data set [1] (setting [6]), the inhibition in vivo at 0.2 mg/kg turned out to be 90%. Further, the ED50 in data set [2] (setting [5]) worked out at 0.074 mg/kg. In addition, in data set [2] (intraduodenal, rat), the “Efficacy Ratio relative to Cimetidine” value was determined as 97.3. In addition, the Kb on Histamine H2-Receptor is 646 nM.
Turning to `O=c1c(NC/C=C\COc2cccc(CN3CCCCC3)c2)c(NCc2ccncc2)c1=O` [Ex. 38], the inhibition in vivo at 0.2 mg/kg in data set [1] (setting [6]) was 98%. Also, in data set [2] (setting [5]), the ED50 was found to be 0.04 mg/kg. Besides, in data set [2] (intraduodenal, rat), the “Efficacy Ratio relative to Cimetidine” value is recorded as 180.0. Further, the Kb on Histamine H2-Receptor is 589 nM.
